This note sets out measurements from patent publication US20080193397A1, “Use of Peroxide Decomposers Method For the Treatment of a Material Other Than the Human Body” (BASF Aktiengesellscaft, priority 2005, published 2008).

A short description of this assay: Squalene degradation test with free-radical initiator V65 (protective factor QS, synergy with tocopherol). More on the design: key to QS: QS = degradation rate without stabilizer / degradation rate with it. Particulars: squalene content by GC; for QS: 250 ppm test substance in 2% azobis(2,4-dimethylvaleronitrile) in squalene, stored open 30 days at 40° C., QSx=degradation rate0/degradation ratex; for QS + 250 ppm Tocopherol: 250 ppm test substance plus 250 ppm tocopherol in 2% azobis(2,4-dimethylvaleronitrile) in squalene, 30 days at 40° C. The method, then:
General procedure for determining the synergistic effect of peroxide decomposers used according to the invention with tocopherol
3 ml of a 2% strength solution of azobis(2,4.dimethylvaleronitrile). (V65, Wako Chemical Co.) in squalene are poured together with 250 ppm of test substance (based on the squalene solution) into Fiolax test tubes ([…]) and thoroughly mixed using a laboratory shaker. The samples are then stored open in a circulatory drying cabinet for 30 days at 40° C. At intervals of 7 days, the squalene content of the samples is ascertained using gas chromatography. The reference used is a sample without the […]. The data points are documented in an XY graph and the effectiveness of the test substances is determined by reference to the slope of the decomposition curves in comparison to the reference sample.
A measure of the protective effect of a test compound is the factor QS, which is a measure of how much a stabilizer reduces the degradation rate. QSx=degradation rate0/degradation ratex

As for `S=c1cc[nH]c(=S)[nH]1` [compound 4], the QS was 1.13 and the “QS + 250 ppm Tocopherol” value is 2.08. The matching figures for `Oc1cccnc1S` [compound 9]: 1.66 and 2.25. As to `Sc1nccs1` [compound 3], the QS turned out to be 2.75 and the “QS + 250 ppm Tocopherol” value was found to be 4.25. As for `O=C(O)c1cccnc1S` [compound 10], the QS amounted to 1.18 and the “QS + 250 ppm Tocopherol” value was determined as 1.65. Turning to `On1ccccc1=S` [compound 7], the QS was 1.47 and the “QS + 250 ppm Tocopherol” value is reported as 2.58. The corresponding values for `S=C1CSc2ccccc2N1` [compound 6] are 3.03 and 3.75. The corresponding values for `CCCc1cc(O)nc(S)n1` [compound 5] are 2.58 and 4.44. In the case of Tocopherol [reference compound], the QS came to 1.3.

For `Sc1nnc(-c2ccccc2)[nH]1` [compound 8], the QS came to 1.34 and the “QS + 250 ppm Tocopherol” value amounted to 1.8.
